Row | SMILES | logP
1 | CCCCCCC(C)(C)c1ccc(C2CC(O)CCC2CCCCO)c(O)c1 (centres undefined) | 6.68
2 | CCCCCC(C)(C)c1ccc([C@H]2CCC[C@@H](O)C2)c(O)c1 | 5.97
3 | CCCCCC(C)C(C)c1cc(O)c2c(c1)OC(C)(C)C1=C2CC(C)CC1 (centres undefined) | 8.3
4 | CCCCCCCCC(C)(C)c1ccc([C@H]2CCC[C@@H](O)C2)c(O)c1 | 8.16
5 | C=C1CCC2C(C1)c1c(OC)cc(CCCCC)cc1OC2(C)C (centres undefined) | 7.62
6 | CCCCCc1cc(OC)c2c(c1)OC(C)(C)[C@@H]1CC=C(C)C[C@@H]21 | 8.06
7 | CCCCCc1cc(O)c2c(c1)OC(C)(C)C1CC=C(C)CC21 (centres undefined) | 7.41
8 | CCCCCCC(C)(C)c1cc(O)c2c(c1)OC(C)(C)C1CC=C(C)CC21 (centres undefined) | 9.96
9 | CCCCCCC(C)(C)c1ccc([C@@H]2C[C@H](O)C[C@@H]3CC[C@H](CO)C[C@H]32)c(O)c1 | 6.13
10 | CCCCCCC(C)(C)c1cc(O)c2c(c1)OC(C)(C)C1CCC(C=O)=CC21 (centres undefined) | 8.03
11 | CCCC(C)(C)c1ccc(C2CCCC(O)C2)c(O)c1 (centres undefined) | 4.82
12 | C=C1C[C@H]2c3c(O)cc(CCCCC)cc3OC(C)(C)[C@@H]2C[C@H]1O | 4.24
13 | CCCCCc1cc(OCc2ccc(-c3ccccc3)cc2)c2c(c1)OC(C)(C)C1CC=C(C)CC21 (centres undefined) | 10.9
14 | CCCCCc1cc(O)c2c(c1)OC(C)(C)c1ccc(C)cc1-2 | 6.23
15 | CCCCCCC(C)(C)c1cc(O)c2c(c1)OC(C)(C)C1CCC(CO)=CC21 (centres undefined) | 7.83
16 | CCCCC(C)(C)c1ccc(C2CCCC(O)C2)c(O)c1 (centres undefined) | 5.43
17 | CCCCCc1cc(O)c2c(c1)OC(C)(C)[C@@H]1CCC(CO)=C[C@@H]21 | 5.33

Row | SMILES | logP
18 | CCCCCCC(C)(C)c1ccc(C2CCCC(O)C2)c(O)c1 (centres undefined) | 6.68
19 | C=C1CC[C@@H]2[C@@H](C1)c1c(OCc3ccc(-c4ccccc4)cc3)cc(CCCCC)cc1OC2(C)C | 11.3
20 | C=C1CCC2C(C1)c1c(OC)cc(CCC)cc1OC2(C)C (centres undefined) | 6.26
21 | CCCCCCCCCCC(C)(C)c1ccc(C2CCCC(O)C2)c(O)c1 (centres undefined) | 8.42
22 | CC(=O)Oc1cc(O[C@H](C)CCCc2ccccc2)cc2c1[C@@H]1C[C@H](O)CC[C@H]1[C@H](C)N2 | 5.7
23 | CC(C)(C)c1ccc(C2CCCC(O)C2)c(O)c1 (centres undefined) | 4.05
24 | C=C(C)[C@@H]1CCC(C)=C[C@H]1c1c(O)cc(CCCCC)cc1O | 5.79
25 | CCCCCCC(C)(C)c1ccc(C2CC(O)CCC2CCCO)c(O)c1 (centres undefined) | 6.13
26 | CCCCCc1cc(OCCCCN)c2c(c1)OC(C)(C)C1CC=C(C)CC21 (centres undefined) | 8.38
27 | CCCCCc1cc(OCCCCCN2CC(=O)c3ccccc3C2=O)c2c(c1)OC(C)(C)C1CC=C(C)CC21 (centres undefined) | 9.07
28 | CCCCCc1cc(O)c2c(c1)OC(C)(C)[C@@H]1CC=C(C(=O)O)C[C@@H]21 | 3.51
29 | CCCCCCC(C)(C)c1cc(O)c2c(c1)OC(C)(C)C1CC=C(CO)CC21 (centres undefined) | 7.44
30 | CCC(C)(C)c1ccc(C2CCCC(O)C2)c(O)c1 (centres undefined) | 4.32
31 | CCCCCCC(C)(C)c1ccc(C2CC(O)CCC2C)c(O)c1 (centres undefined) | 7.49
32 | CC(=O)Oc1cc(OC(C)CCCc2ccccc2)cc2c1C1CC(O)CCC1C(C)N2C (centres undefined) | 5.72
33 | CCCCCCCC(C)(C)c1ccc([C@H]2CCC[C@@H](O)C2)c(O)c1 | 7.18
34 | CC1=CCC2C(C1)c1c(O)cc(NS(C)(=O)=O)cc1OC2(C)C (centres undefined) | 3.12
